US20250325552A1, “SUBSTITUTED THIADIAZOLYL DERIVATIVES AS DNA POLYMERASE THETA INHIBITORS” (IDEAYA Biosciences, Inc., priority 2020, published 2025)

What follows are compounds tested against Polθ theta (1-899) (hPolQ) (Homo sapiens (Human), UniProt O75417) (assay: Biological Assay 1: Polθ ATPase activity, NADH oxidation-coupled enzymatic assay (10 nM enzyme, 30 min)). Settings: Polθ (1-899) 10 nM, 100 μM ATP, 300 nM dT50 ssDNA; Examples 1 to 268; read-out: ATPase NADH coupling:Standard Screening:hPolQ IC50.
Polθ theta (1-899) (hPolQ), sequence (O75417 1-899): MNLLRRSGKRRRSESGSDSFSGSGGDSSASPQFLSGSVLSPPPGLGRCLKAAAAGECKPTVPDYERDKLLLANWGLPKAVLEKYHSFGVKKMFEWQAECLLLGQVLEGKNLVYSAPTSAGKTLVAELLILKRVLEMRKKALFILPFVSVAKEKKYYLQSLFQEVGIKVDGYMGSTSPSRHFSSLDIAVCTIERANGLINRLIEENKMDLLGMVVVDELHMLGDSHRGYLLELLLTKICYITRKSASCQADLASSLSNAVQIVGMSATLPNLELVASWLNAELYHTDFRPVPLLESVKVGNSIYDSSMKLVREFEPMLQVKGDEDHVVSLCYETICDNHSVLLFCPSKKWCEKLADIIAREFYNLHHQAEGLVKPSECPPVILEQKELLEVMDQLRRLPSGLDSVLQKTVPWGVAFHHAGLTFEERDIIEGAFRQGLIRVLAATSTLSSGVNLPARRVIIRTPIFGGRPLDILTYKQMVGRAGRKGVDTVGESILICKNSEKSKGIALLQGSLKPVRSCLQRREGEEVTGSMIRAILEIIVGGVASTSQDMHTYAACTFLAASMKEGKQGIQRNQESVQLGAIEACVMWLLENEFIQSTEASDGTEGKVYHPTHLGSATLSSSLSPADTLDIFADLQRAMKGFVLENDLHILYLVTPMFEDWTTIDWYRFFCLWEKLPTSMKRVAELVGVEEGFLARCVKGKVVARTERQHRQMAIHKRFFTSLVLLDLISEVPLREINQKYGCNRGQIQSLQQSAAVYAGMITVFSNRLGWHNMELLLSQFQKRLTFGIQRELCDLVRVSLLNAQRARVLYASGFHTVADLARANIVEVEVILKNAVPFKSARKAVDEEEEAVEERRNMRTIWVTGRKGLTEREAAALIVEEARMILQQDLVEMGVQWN
Format: biochemical
Outline: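 ATP turnover was coupled to NADH oxidation and followed at 340 nm every minute for 30 min. Enzyme (residues 1-899, 10 nM) sat with compound for 15 min at room temperature before an equal-volume addition of 100 μM ATP plus 300 nM dT50 ssDNA. Progress-curve slopes from 10-point dilutions were fitted by a four-parameter model.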
For `COc1cnc(Cl)c(F)c1-c1cc(C)ncc1C(=O)Nc1nnc(OCC2CCOC2)s1` (stereo in doubt) [Example 183, 2′-chloro-3′-fluoro-5′-methoxy-6-methyl-N-(5-(((R)-tetrahydrofuran-3-yl)methoxy)-1,3,4-thiadiazol-2-yl)-(4,4′-bipyridine)-3-carboxamide], the IC50 was ≤ 200 nM. With `COc1cnc(Cl)cc1-c1cc(C)ncc1C(=O)Nc1nnc(OCC2CS(=O)(=O)C2)s1` [Example 166, 2′-chloro-N-(5-((1,1-dioxidothietan-3-yl)methoxy)-1,3,4-thiadiazol-2-yl)-5′-methoxy-6-methyl-(4,4′-bipyridine)-3-carboxamide] the IC50 was ≤ 200 nM. With `COc1cnc(Cl)cc1-c1cc(C)ncc1C(=O)Nc1nnc(OCC2(C#N)CC2)s1` [Example 205, 2′-chloro-N-(5-((1-cyanocyclopropyl)methoxy)-1,3,4-thiadiazol-2-yl)-5′-methoxy-6-methyl-(4,4′-bipyridine)-3-carboxamide] the IC50 was ≤ 200 nM. In the case of `COc1cnc(Cl)cc1-c1cc(C)ncc1C(=O)Nc1nnc(OCC2CCO2)s1` (racemic) [Example 165, 2′-chloro-5′-methoxy-6-methyl-N-(5-(oxetan-2-ylmethoxy)-1,3,4-thiadiazol-2-yl)-(4,4′-bipyridine)-3-carboxamide], the IC50 is reported as ≤ 200 nM. With `Cc1cc(-c2ccnc(Cl)c2)c(C(=O)Nc2nnc(OCc3ccc(C(C)(C)O)cn3)s2)cn1` [Example 73, 2′-chloro-N-(5-((5-(2-hydroxypropan-2-yl)pyridin-2-yl)methoxy)-1,3,4-thiadiazol-2-yl)-6-methyl-(4,4′-bipyridine)-3-carboxamide] the IC50 was ≤ 200 nM. In the case of `COc1c(-c2cc(C)ncc2C(=O)Nc2nnc(OCc3ccc(Cl)cn3)s2)ccnc1C#N` [Example 85, N-(5-((5-chloropyridin-2-yl)methoxy)-1,3,4-thiadiazol-2-yl)-2′-cyano-3′-methoxy-6-methyl-[4,4′-bipyridine]-3-carboxamide], the IC50 is reported as ≤ 200 nM. In the case of `COc1ccccc1-c1cc(C)ncc1C(=O)Nc1nnc(OCc2ccc(C3(C(=O)O)CC3)cn2)s1` [compound 4, 1-(6-(((5-(4-(2-methoxyphenyl)-6-methylnicotinamido)-1,3,4-thiadiazol-2-yl)oxy)methyl)pyridin-3-yl)cyclopropane-1-carboxylic acid], the IC50 is reported as ≤ 200 nM. `COc1cccc(F)c1-c1cc(C)ncc1C(=O)Nc1nnc(OCc2ccc(CO)cn2)s1` [Example 14, 4-(2-fluoro-6-methoxyphenyl)-N-(5-((5-(hydroxymethyl)pyridin-2-yl)methoxy)-1,3,4-thiadiazol-2-yl)-6-methylpyridine-3-carboxamide] was tested, and the IC50 was ≤ 200 nM. In the case of `Cc1cc(-c2ccccc2OC(F)F)c(C(=O)Nc2nnc(OCc3ccc(C(C)(C)O)cn3)s2)cn1` [Example 59, 4-(2-(difluoromethoxy)phenyl)-N-(5-((5-(2-hydroxypropan-2-yl)pyridin-2-yl)methoxy)-1,3,4-thiadiazol-2-yl)-6-methylnicotinamide], the IC50 is reported as ≤ 200 nM. With `COc1ccc(COc2nnc(NC(=O)c3cnc(C)cc3-c3c(F)cccc3OC)s2)nc1` [Example 20, 4-(2-fluoro-6-methoxyphenyl)-N-(5-((5-methoxypyridin-2-yl)methoxy)-1,3,4-thiadiazol-2-yl)-6-methylpyridine-3-carboxamide] the IC50 was ≤ 200 nM. In the case of `Cc1cc(-c2cc(Cl)ncc2OC(F)F)c(C(=O)Nc2nnc(OC[C@H]3CCOC3)s2)cn1` (single isomer, unassigned) [Example 257], the IC50 is reported as ≤ 200 nM. For `COc1cnc(Cl)cc1-c1cc(C)ncc1C(=O)Nc1nnc(OC[C@H]2COC(C)(C)CO2)s1` (single isomer, unassigned) [Example 223], the IC50 was ≤ 200 nM. With `COc1cnc(Cl)cc1-c1cc(C)ncc1C(=O)Nc1nnc(OC[C@@H]2CCO[C@H]2C)s1` (single isomer, unassigned) [Example 180] the IC50 was ≤ 200 nM. With `COc1cnc(Cl)cc1-c1cc(C)ncc1C(=O)Nc1nnc(OCC2CCOC2C)s1` (stereo not drawn) [Example 177, 2′-chloro-5′-methoxy-6-methyl-N-(5-((2-methyltetrahydrofuran-3-yl)methoxy)-1,3,4-thiadiazol-2-yl)-(4,4′-bipyridine)-3-carboxamide] the IC50 was ≤ 200 nM. With `COc1cnc(Cl)cc1-c1cc(C)ncc1C(=O)Nc1nnc(OCC2CC3(CC(O)C3)C2)s1` (stereo not drawn) [Example 138, 2′-chloro-N-(5-((6-hydroxyspiro[3.3]heptan-2-yl)methoxy)-1,3,4-thiadiazol-2-yl)-5′-methoxy-6-methyl-[4,4′-bipyridine]-3-carboxamide] the IC50 was ≤ 200 nM. For `COc1cnc(Cl)cc1-c1cc(C)ncc1C(=O)Nc1nnc(OCC2COC2)s1` [Example 164, 2′-chloro-5′-methoxy-6-methyl-N-(5-(oxetan-3-ylmethoxy)-1,3,4-thiadiazol-2-yl)-(4,4′-bipyridine)-3-carboxamide], the IC50 was ≤ 200 nM. In the case of `COc1ccccc1-c1cc(C)ncc1C(=O)Nc1nnc(OCc2ccc3c(n2)CCNC3)s1` [Example 71, 4-(2-methoxyphenyl)-6-methyl-N-(5-(5,6,7,8-tetrahydro-1,6-naphthyridin-2-ylmethoxy)-1,3,4-thiadiazol-2-yl)pyridine-3-carboxamide], the IC50 is reported as 500 to 1000 nM. With `COc1cnc(Cl)cc1-c1cc(C)ncc1C(=O)Nc1nnc(OC[C@@H]2CC[C@H](O)C2)s1` (single isomer, unassigned) [Example 211] the IC50 was ≤ 200 nM. In the case of `COc1cnc(Cl)cc1-c1cc(C)ncc1C(=O)Nc1nnc(OC[C@H]2C[C@@H]2F)s1` (stereo in doubt) [Example 207, 2′-chloro-N-(5-(((1R,2S)-2-fluorocyclopropyl)methoxy)-1,3,4-thiadiazol-2-yl)-5′-methoxy-6-methyl-(4,4′-bipyridine)-3-carboxamide], the IC50 is reported as ≤ 200 nM. `COc1ccccc1-c1cc(C)ncc1C(=O)Nc1nnc(OCc2ccc(C3(CO)CC3)cn2)s1` [Example 7, N-(5-((5-(1-(hydroxymethyl)cyclopropyl)pyridin-2-yl)methoxy)-1,3,4-thiadiazol-2-yl)-4-(2-methoxyphenyl)-6-methylnicotinamide] was tested, and the IC50 was ≤ 200 nM. For `COc1cnc(C)cc1-c1cc(C)ncc1C(=O)Nc1nnc(OC[C@H]2CC[C@@H](O)CC2)s1` [Example 127, N-(5-(((1s,4s)-4-hydroxycyclohexyl)methoxy)-1,3,4-thiadiazol-2-yl)-5′-methoxy-2′,6-dimethyl-[4,4′-bipyridine]-3-carboxamide], the IC50 was ≤ 200 nM. `COc1cccc(F)c1-c1cc(C)ncc1C(=O)Nc1nnc(OCc2ccc(C(C)O)cn2)s1` (racemic) [Example 22, 4-(2-fluoro-6-methoxyphenyl)-N-(5-((5-(1-hydroxyethyl)pyridin-2-yl)methoxy)-1,3,4-thiadiazol-2-yl)-6-methylnicotinamide] was tested, and the IC50 was ≤ 200 nM. With `COc1ccccc1-c1cc(C)ncc1C(=O)Nc1nnc(O[C@H](C)c2ccc(Cl)cn2)s1` [Example 12, (R)—N-(5-(1-(5-chloropyridin-2-yl)ethoxy)-1,3,4-thiadiazol-2-yl)-4-(2-methoxyphenyl)-6-methylnicotinamide] the IC50 was 1000 to 10000 nM. For `COc1cnc(C)c(F)c1-c1cc(C)ncc1C(=O)Nc1nnc(OCC23CCC(O)(CC2)CC3)s1` [Example 219, 3′-fluoro-N-(5-((4-hydroxybicyclo(2.2.2)octan-1-yl)methoxy)-1,3,4-thiadiazol-2-yl)-5′-methoxy-2′,6-dimethyl-(4,4′-bipyridine)-3-carboxamide], the IC50 was ≤ 200 nM.
